Key:
[1] = test system: A549 (lung adenocarcinoma); experiment: Cytotoxic activity assay (MTT); type: cell-based, human; details: for IC50: Homo sapiens, A549, 48 h exposure, MTT, read-out: Cell lines, IC50 (μM) A549; for Selectivity Index (SI) values A549: SI = IC50 normal cell (MRC-5)/ IC50 cancer cell
Excerpt: (§1) The synthetic compounds were screened for their cytotoxic activity using standard MTT or XTT methods[30] against a panel of nine human cancer cell lines and one normal cell line, including MDA-MB-231 (triple-negative breast cancer), T-47D (hormone-dependent breast cancer), HepG2 (hepatocellular carcinoma), A549 (lung adenocarcinoma), H69AR (multidrug-resistant small cell lung carcinoma), HuCCA-1 (cholangiocarcinoma derived from a patient), HeLa (cervical carcinoma), and two leukemia cell lines, HL-60 (acute promyelocytic leukemia) and MOLT-3 (T cell acute lymphoblastic leukemia). MRC-5 normal embryonic lung fibroblast cell line was used to represent normal cells. Chemotherapeutic drugs, doxorubicin and etoposide, were used as positive controls.
(§2) The cells were seeded into 96-well plates (100 µL for adherent cells and 75 µL for suspended cells) at a density of 5000–20,000 cells per well, depending on their growth rates. Adherent and suspended cells were then allowed to grow at 37 °C with 95% humidity and 5% CO2 for 24 h and 30 min, respectively. The cytotoxicity assay was initiated by adding an equal volume of cell culture medium containing tested compound at predetermined concentrations. Following 48 h of exposure, cell viability was determined using MTT assay for adherent cells[51],[52]or XTT assay for suspeended cells. Briefly, for adherent cells, 100 µL of the MTT reagent was added to each well, and the microtiter plates were further incubated for 2.5–4 h. The medium was subsequently replaced with 100 µL of DMSO to dissolve the purple formazan before the absorbance at 550 nm was measured using a microplate reader (a SpectraMax Plus 384) with a reference wavelength of 650 nm. For suspended cells, 75 µL of the XTT reagent was added to each well, and the cells were further incubated for 4 h. Afterwards, the absorbance of orange formazan at 492 nm was measured with a reference wavelength of 690 nm using a microplate reader.

[2] = test system: H69AR (multidrug-resistant small cell lung carcinoma); experiment: Cytotoxic activity assay (MTT); type: cell-based, human; details: for IC50: Homo sapiens, H69AR, 48 h exposure, MTT, read-out: Cell lines, IC50 (μM) H69AR; for Selectivity Index (SI) values H69AR: SI = IC50 normal cell (MRC-5)/ IC50 cancer cell
Excerpt: as §1, §2

[3] = test system: HeLa (cervical carcinoma); experiment: Cytotoxic activity assay (MTT); type: cell-based, human; details: for IC50: Homo sapiens, 48 h exposure, MTT, read-out: Cell lines, IC50 (μM) HeLa; for Selectivity Index (SI) values HeLa: SI = IC50 normal cell (MRC-5)/ IC50 cancer cell
Excerpt: as §1, §2

[4] = test system: HepG2 (hepatocellular carcinoma); experiment: Cytotoxic activity assay (MTT); type: cell-based, human; details: for IC50: Homo sapiens, HepG2, 48 h exposure, MTT, read-out: Cell lines, IC50 (μM) HepG2; for Selectivity Index (SI) values HepG2: SI = IC50 normal cell (MRC-5)/ IC50 cancer cell
Excerpt: as §1, §2

[5] = test system: HuCCA-1 (cholangiocarcinoma derived from a patient); experiment: Cytotoxic activity assay (MTT); type: cell-based, human; details: for IC50: Homo sapiens, HuCC-A1, 48 h exposure, MTT, read-out: Cell lines, IC50 (μM) HuCCA-1; for Selectivity Index (SI) values HuCCA-1: SI = IC50 normal cell (MRC-5)/ IC50 cancer cell
Excerpt: as §1, §2

[6] = test system: MDA-MB-231 (triple-negative breast cancer); experiment: Cytotoxic activity assay (MTT); type: cell-based, human; details: for IC50: Homo sapiens, MDA-MB-231, 48 h exposure, MTT, read-out: Cell lines, IC50 (μM) MDA-MB-231; for Selectivity Index (SI) values MDA-MB-231: SI = IC50 normal cell (MRC-5)/ IC50 cancer cell
Excerpt: as §1, §2

[7] = test system: T-47D (hormone-dependent breast cancer); experiment: Cytotoxic activity assay (MTT); type: cell-based, human; details: for IC50: Homo sapiens, T47D, 48 h exposure, MTT, read-out: Cell lines, IC50 (μM) T47-D; for Selectivity Index (SI) values T47-D: SI = IC50 normal cell (MRC-5)/ IC50 cancer cell
Excerpt: as §1, §2

[8] = test system: HL-60 (acute promyelocytic leukemia); experiment: Cytotoxic activity assay (XTT); type: cell-based, human; details: for IC50: Homo sapiens, HL-60, 48 h exposure, XTT, read-out: Cell lines, IC50 (μM) HL-60; for Selectivity Index (SI) values HL-60: SI = IC50 normal cell (MRC-5)/ IC50 cancer cell
Excerpt: as §1, §2

[9] = test system: MOLT-3 (T cell acute lymphoblastic leukemia); experiment: Cytotoxic activity assay (XTT); type: cell-based, human; details: for IC50: Homo sapiens, MOLT-3, 48 h exposure, XTT, read-out: Cell lines, IC50 (μM) MOLT-3; for Selectivity Index (SI) values MOLT-3: SI = IC50 normal cell (MRC-5)/ IC50 cancer cell
Excerpt: as §1, §2

[10] = test system: MRC-5 normal embryonic lung fibroblast cell line; experiment: Cytotoxic activity assay (MTT), normal cells; type: cell-based; details: Homo sapiens, MRC5, 48 h exposure, read-out: Cell lines, IC50 (μM) MRC-5
Excerpt: as §1, §2

Compound	IC50 [1]	Selectivity Index (SI) values A549 [1]	IC50 [2]	Selectivity Index (SI) values H69AR [2]	IC50 [3]	Selectivity Index (SI) values HeLa [3]	IC50 [4]	Selectivity Index (SI) values HepG2 [4]	IC50 [5]	Selectivity Index (SI) values HuCCA-1 [5]	IC50 [6]	Selectivity Index (SI) values MDA-MB-231 [6]	IC50 [7]	Selectivity Index (SI) values T47-D [7]	IC50 [8]	Selectivity Index (SI) values HL-60 [8]	IC50 [9]	Selectivity Index (SI) values MOLT-3 [9]	IC50 [10]
C#CCNC(=O)/C=C(\C)CC[C@H]1C(=C)CC[C@H]2C(C)(C)CCC[C@]12C [Compound 4c, (E)-3-Methyl-N-(prop-2-yn-1-yl)-5-((1S,4aS,8aS)-5,5,8a-trimethyl-2-methylenedecahydronaphthalen-1-yl)pent-2-enamide]	54.1 ± 1.17 µM	0.9	113 ± 1.35 µM	0.4	28.1 ± 0.93 µM	1.7	85.06 ± 0.61 µM	0.6	52.7 ± 0.11 µM	0.9	27.5 ± 0.62 µM	1.8	76.6 ± 4.68 µM	0.6	24.13 ± 0.08 µM	2.0	23.2 ± 1.03 µM	2.1	48.1 ± 0.62 µM
C=C1CC[C@H]2C(C)(C)CCC[C@]2(C)[C@H]1CC/C(C)=C/C(=O)NCCCCCCCC [Compound 4d, (E)-3-Methyl-N-octyl-5-((1S,4aS,8aS)-5,5,8a-trimethyl-2-methylenedecahydronaphthalen-1-yl)pent-2-enamide]	> 120 µM	1.0	> 120 µM	1.0	> 120 µM	1.0	> 120 µM	1.0	> 120 µM	1.0	> 120 µM	1.0	> 120 µM	1.0	> 120 µM	1.0	> 120 µM	1.0	> 120 µM
C=C1CC[C@H]2C(C)(C)CCC[C@]2(C)[C@H]1CC/C(C)=C/C(=O)Nc1ccccc1 [Compound 4e, (E)-3-Methyl-N-phenyl-5-((1S,4aS,8aS)-5,5,8a-trimethyl-2-methylene-decahydronaphthalen-1-yl)pent-2-enamide]	46.9 ± 1.28 µM	2.8	> 120 µM	1.0	98.11 ± 0.08 µM	1.3	> 120 µM	1.0	> 120 µM	1.0	> 120 µM	1.0	> 120 µM	1.0	60.6 ± 4.97 µM	2.2	25.9 ± 1.88 µM	5.1	> 120 µM
C=C1CC[C@H]2C(C)(C)CCC[C@]2(C)[C@H]1CC/C(C)=C/C(=O)NCc1ccccc1 [Compound 4f, (E)-N-Benzyl-3-methyl-5-((1S,4aS,8aS)-5,5,8a-trimethyl-2-methylene-decahydronaphthalen-1-yl)pent-2-enamide]	> 120 µM	1.0	> 120 µM	1.0	> 120 µM	1.0	> 120 µM	1.0	> 120 µM	1.0	> 120 µM	1.0	> 120 µM	1.0	87.3 ± 8.47 µM	1.5	> 120 µM	1.0	> 120 µM
C=C1CC[C@H]2C(C)(C)CCC[C@]2(C)[C@H]1CC/C(C)=C/C(=O)NCc1ccccn1 [Compound 4g, (E)-3-Methyl-N-(pyridin-2-ylmethyl)-5-((1S,4aS,8aS)-5,5,8a-trimethyl-2-methylenedecahydronaphthalen-1-yl)pent-2-enamide]	38.2 ± 0.49 µM	1.2	92.7 ± 1.18 µM	0.5	46.7 ± 1.03 µM	1.0	41.7 ± 1.46 µM	1.1	46.2 ± 0.6 µM	1.0	35.1 ± 0.98 µM	1.3	55.1 ± 2.8 µM	0.8	22.7 ± 0.36 µM	2.0	20.9 ± 0.99 µM	2.1	44.8 ± 1.62 µM
C=C1CC[C@H]2C(C)(C)CCC[C@]2(C)[C@H]1CC/C(C)=C/C(=O)NCCc1c[nH]c2ccccc12 [Compound 4h, (E)-N-(2-(1H-Indol-3-yl)ethyl)-3-methyl-5-((1S,4aS,8aS)-5,5,8a-trimethyl-2-methylenedecahydronaphthalen-1-yl)pent-2-enamide]	41.4 ± 2.48 µM	1.2	71.5 ± 2.47 µM	0.7	20.7 ± 0.4 µM	2.3	40.5 ± 2.25 µM	1.2	42.4 ± 0.5 µM	1.1	23.5 ± 0.36 µM	2.1	> 120 µM	0.4	16.8 ± 0.61 µM	2.9	17.1 ± 0.57 µM	2.8	48.2 ± 1.06 µM

From article PMC10439230 (Scientific Reports, 2023)
